Source: patent publication US12435377B2, “Cancers with loss of chromosome 16Q and/or low expression of metallothionein proteins” (THE BROAD INSTITUTE, INC., priority 2018, dated 2025)
Where two headings read alike, the source gives them in different places.

Legend:
[1] = test system: G401 cells; experiment: CellTiter-Glo cellular viability assay, dose-response curves (FIG. 5B)
Procedure: (§2) Cell viability was assayed using a modified manufacturer's protocol for CellTiter-Glo® (Promega #G7573). Cells were seeded at a density of 2000 cells per well in a 96 well black, clear bottom plate (Corning #89091-012) in 100 uL total media per well. The following day different concentrations of compounds at various doses were printed in triplicate in a random well format using the Tecan D300e Digital Dispenser. After 120H, 60 μL of a 1:3 solution of CellTiterGlo reagent in 1×PBS (Corning #01018002) was added per well and allowed to incubate at RT for 10 mins. Luminescence was measured with an integration time of 0.1 s using Envision Microplates Reader (PERKIN ELMER #2105-0010). Biological replicates were averaged and normalized to vehicle control. Dose curves were generated using Graphpad Prism.

[2] = test system: SF295 cells; experiment: Viability of SF295 cells with or without CRISPR-Cas9 MTF1 knockout (FIG. 7); assay type: cell-based; conditions: MTF1 sg1 and MTF1 sg2 versus control guide GFP sg1
Excerpt: XP003, XP023, psPAX, and pMD2.G vectors were acquired from the Broad Genetic Perturbation Platform (GPP). Oligos for sgRNAs designs were generated using Broad GPP sgRNA guide generator resource (broad institute.org/gpp/db/analysis-tools/sgrna-design) and the respective oligos were synthesized by Integrated DNA Technologies. In order to clone the sgRNAs into either the XPR003 guide only or XPRO23 all-in-one crispr lentiviral expression systems the protocol available on the Broad GPP website (broadinstitute.org/gpp/db/resources/protocols) was followed.
A mixture of 3E6 cells, virus, and media with 4 μg/mL polybrene (Millipore) at a total volume of 2 mL was plated per well of a 12 well plate. Cells were centrifuged at 2000 RPM for 2 hours at 30° C. After removal from incubator, 2 mL of fresh media was added to each well and cells were allowed to incubate at 37° C. overnight. The following day cells were selected for with puromycin for 3-10 days, or until the non-infected control cell were completely non-viable.
(§1) Biological replicates were averaged and normalized to vehicle control. Dose curves were generated using Graphpad Prism.

[3] = test system: SH10TC cells; experiment: CellTiter-Glo cellular viability assay, dose-response curves (FIG. 5B)
Procedure: as §2

[4] = test system: PRISM cancer cell lines stratified by chromosome 16q status; experiment: PRISM multiplexed cellular viability assay (drug repurposing library); assay type: cell-based, human; conditions: for cell killing profile: PRISM screen, compared with other compounds of the drug repurposing library
Procedure: Parental cell lines were obtained from the Cancer Cell Line Encyclopedia (CCLE) project (1). PRISM cell line barcoding, pooling, and screening was performed as previously described with several improvements to the original method (2). First, the lentiviral vector was modified to encode the unique barcode identifier at the end of the puromycin resistance gene. This enables barcodes to be detected using a variant of the mRNA capture and Luminex detection method developed for the L1000 gene expression assay (3). Second, a set of ten inert barcodes were spiked-in to each well of each plate after cell lysis to control for variation in PCR amplification as detailed below.
MFI values were log-transformed (log MFI) and used to perform basic quality control. To detect probable screening artifacts, log MFI values were centered to the median log MFI for each cell line on each plate in order to put the measurements from each cell line on the same scale. For each well on each plate, the median of these centered values was then standardized according to the global median and global MAD across all plate wells in the same position. Data from wells with a standardized score of greater than 5 or less than −5 were excluded from all further processing steps.
Cell viability was calculated as the ratio of nMFI to the median of the nMFI from the DMSO-treated negative controls for each cell line on each plate. Batch effects produced from variable detection and assay conditions were then removed using ComBat (4). The final viability values were calculated as the median of the batch-corrected cell viabilities from biological replicates for each cell line, compound and dose.
Measures of dose response were obtained by fitting 3-parameter logistic curves to viability values for each compound and cell line using the R package ‘dre’. Following the practice of Smirnov and Safikhani (5), viability was truncated at 1.0 and fit as a function of drug concentration according to: […]
[formula] The Area Under the dose response Curve (AUC) was calculated using the normalized integral: […]

[5] = test system: metastatic melanoma; conditions: cited from earlier work
[6] = test system: biomarker-presenting cell lines; experiment: Cytotoxicity of disulfiram metabolites to biomarker-presenting cell lines; assay type: cell-based; conditions: compared with the cytotoxicity of disulfiram (DSF)
Excerpt: as §1

[7] = cited from earlier work
[8] = in chloroform, acetone and ether; cited from earlier work
[9] = test system: SH10TC cells
Procedure: as §2

[10] = test system: G401 cells
Procedure: as §2

[11] = order paclitaxel, elesclomol, disulfiram/thiram, DDC

Molecule | cytotoxic activity (dose-response) [1] | cytotoxic activity (dose-response) [3] | biomarker-predicted cytotoxic activity [6] | other results
CN(NC(=O)CC(=O)NN(C)C(=S)c1ccccc1)C(=S)c1ccccc1 [elesclomol, Elesclomol] | active | active | – | effect of MTF1 knockout on sensitivity of SF295 cells [2]: sensitized; cell killing profile [4]: shared cell killing profile specific for cancer cell lines having 16q loss; progression-free survival ([5]; phase III study, combined with paclitaxel, halted in 2013): did not significantly increase progression-free survival; progression-free survival ([5]; small randomized phase II study, given in addition to paclitaxel): significantly increase progression-free survival
copper(II) diethyldithiocarbamate [Cu-DDC] | – | – | retain the cytotoxicity | –
CN(C)C(=S)SSC(=S)N(C)C [thiram, Thiram] | active | active | – | cell killing profile [4]: shared cell killing profile specific for cancer cell lines having 16q loss; toxicity ([7]; by ingestion): moderately toxic; toxicity ([7]; if inhaled): highly toxic; solubility [8]: dissolve completely
CCN(CC)C(=S)SSC(=S)N(CC)CC [disulfiram, Disulfiram] | active | active | – | disulfiram cytotoxicity (linear AUC) versus chromosome 16q status ([4]; Mann-Whitney U test, cell lines binned as 16q loss, normal, gain, 480 cell lines): strongly correlated with 16q loss
CC(=O)O[C@H]1C(=O)[C@@]2(C)[C@H]([C@H](OC(=O)c3ccccc3)[C@]3(O)C[C@H](OC(=O)[C@H](O)[C@@H](NC(=O)c4ccccc4)c4ccccc4)C(C)=C1C3(C)C)[C@]1(OC(C)=O)CO[C@@H]1C[C@@H]2O [paclitaxel] | active | active | – | rank of cytotoxicity IC50 among active agents [9]: lowest IC50 value; rank of cytotoxicity IC50 among active agents [10]: lowest IC50 value
CCN(CC)C(=S)SC [methyl DDC, Methyl diethyldithiocarbamate] | inactive | inactive | not observed to be cytotoxic | –
CCN(CC)C(=S)S [DDC, Diethyldithiocarbamic acid] | active | active | retain the cytotoxicity | rank of cytotoxicity IC50 among active agents [1, 11]: highest IC50 value among those compounds that exhibited activity; rank of cytotoxicity IC50 among active agents [3, 11]: highest IC50 value among those compounds that exhibited activity
